Here are results for 17 compounds from PubChem BioAssay (NCI).

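96-well plates; 48 h exposure; 5 concentrations. Endpoints by linear interpolation between flanking doses. Not reached: highest tested concentration assigned. GI50: concentration for 50% inhibition of growth. TGI denotes the concentration required for complete inhibition of growth.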

What all share (assay): NCI tumour cell line growth inhibition, 48 h
The test system of experiment [1] is DU-145 prostate.
The subject of experiment [2] is HCT-116 colon.
Experiment [3] has as its system HS 578T breast.
For experiment [4], the system named is IGROV1 ovarian.
For experiment [5], the system named is MDA-N.
In experiment [6] the test system is NCI-H522 lung.
Experiment [7] has as its system NCI/ADR-RES ovarian.
The subject of experiment [8] is RXF 393 renal.
Experiment [9] has as its system SW-620 colon.
For experiment [10], the system named is TK-10 renal.

`Cc1c(F)c(N)c2c(=O)cc(-c3ccc(NC(=O)C(N)CCCN=C(N)N)c(F)c3)oc2c1F` (stereo unspecified): the TGI in experiment [1] was greater than 78.9 µM; in experiment [2], greater than 100 µM; in experiment [3], 71.9 µM; in [4], 10.8 µM; in experiment [5], greater than 100 µM; in experiment [6], 97.7 µM. The TGI in experiment [7] was greater than 100 µM; in experiment [8] it was 59.3 µM; in experiment [9], greater than 100 µM; in [10] it was 30.5 µM.
On to `CCOC(=O)C(=Cn1c(=S)[nH]c2ccc([N+](=O)[O-])cc21)C(=O)OCC`, for which the TGI in [1], in [2], in experiment [3], in experiment [4], in [5] and in experiment [6] was greater than 100 µM in each case. Besides, the TGI in experiment [7], in experiment [8], in [9] and in [10] was greater than 100 µM in each case.
Consider `N#Cc1nc(/C=C/c2ccccc2)oc1N`, for which the TGI in [1], in experiment [2], in experiment [3], in experiment [4], in experiment [5] and in [6] was greater than 100 µM in each case. Moreover, the TGI in [7], in experiment [8], in [9] and in [10] was greater than 100 µM in each case.
On to `CC1(C)[C@@H]2C[C@H]1C(Cc1cccc(C[C@H]3c4cc(-c5ccccn5)ncc4[C@H]4C[C@@H]3C4(C)C)c1)c1cc(-c3ccccn3)ncc12` (stereo partly specified), for which the TGI in experiment [1] is greater than 100 µM; in experiment [2], greater than 100 µM; in [3] it was greater than 100 µM; in experiment [4], greater than 100 µM; in experiment [5], greater than 100 µM; in experiment [6] it was greater than 56.7 µM. Further, the TGI in experiment [7] is greater than 57.6 µM; in experiment [8] it was greater than 100 µM; in experiment [9], greater than 45.6 µM; in experiment [10] it was greater than 100 µM. The GI50 in experiment [4] is 0.662 µM.
In the case of `O=[N+]([O-])c1ccc(Cl)cc1C=NC12CC3CC(CC(C3)C1)C2`, the TGI in experiment [1] was greater than 100 µM; in [2] it was 62.9 µM; in [3] it was greater than 92.6 µM; in experiment [4], greater than 100 µM; in experiment [5], greater than 100 µM; in [6], greater than 100 µM. Moreover, the TGI in experiment [7] is greater than 86.9 µM; in experiment [8], 97.6 µM; in [9], greater than 100 µM; in experiment [10], greater than 100 µM.
As for `Cc1nnc2sc(N/N=C/c3ccccc3)nn12`, the TGI in [1], in [2], in experiment [3], in experiment [4], in experiment [5] and in experiment [6] was greater than 100 µM in each case. Further, the TGI in [7], in experiment [8], in [9] and in [10] was greater than 100 µM throughout.
`CC(=O)NC1=CC(=O)c2cc(C)cc(O)c2C1=O`: the TGI in [1] was 14.1 µM; in experiment [2], 16.3 µM; in experiment [3], greater than 84.5 µM; in experiment [4], 26.4 µM; in experiment [5], 3.02 µM; in experiment [6] it was 20.2 µM. The TGI is 23.9 µM in experiment [7], 26.8 µM in experiment [8], 10.6 µM in experiment [9] and 45.9 µM in experiment [10].
As to `CC(=N\N=C\c1ccccn1)/C(C)=N/N=C(C)/C(C)=N/N=C(C)/C(C)=N/N=C/c1ccccn1`, the TGI in [1], in experiment [2], in experiment [3], in experiment [4], in experiment [5] and in [6] was greater than 100 µM each time. In addition, the TGI in experiment [7], in experiment [8], in experiment [9] and in experiment [10] was greater than 100 µM throughout.
As for `O=C(OCc1ccccc1)N1c2cc([N+](=O)[O-])ccc2C(=O)N2CCC[C@H]2C1O` (stereo partly specified), the TGI in [1], in [2], in experiment [3], in experiment [4], in experiment [5] and in [6] was greater than 100 µM in each case. The TGI in [7], in [8], in experiment [9] and in [10] was greater than 100 µM each time.
Consider `CCOC(=O)C(NCc1cccc(C(F)(F)F)c1)(NC(=O)c1ccccc1)C(F)(F)F` (stereo unspecified), for which the TGI is greater than 100 µM in [1]; greater than 100 µM in experiment [2]; greater than 100 µM in experiment [3]; 66.9 µM in experiment [4]; greater than 100 µM in [5]; 50.4 µM in experiment [6]. Further, the TGI in experiment [7] was 84.5 µM; in experiment [8], 72.1 µM; in experiment [9], greater than 100 µM; in [10] it was greater than 100 µM.
Take `Cc1n(CC(=O)c2ccccc2)nc2sc(N)n[n+]12`: the TGI in experiment [1], in [2], in [3], in experiment [4], in experiment [5] and in experiment [6] was greater than 100 µM throughout. The TGI in experiment [7], in experiment [8], in experiment [9] and in [10] was greater than 100 µM throughout.
For `COc1cc(C(SCc2ccccc2)SCc2ccccc2)ccc1O`, the TGI in [1], in experiment [2], in experiment [3], in [4], in experiment [5] and in experiment [6] was greater than 10 µM in each case. Besides, the TGI in experiment [7], in experiment [8], in experiment [9] and in experiment [10] was greater than 10 µM throughout.
Regarding `CC(C)CCC/C(CBr)=C(\Cl)CCl`, the TGI was determined as 17.2 µM in experiment [1]; 7.03 µM in [2]; 7.46 µM in experiment [3]; 4.05 µM in [4]; 3.91 µM in experiment [5]; 0.409 µM in experiment [6]. Further, the TGI was found to be 10.7 µM in experiment [7], 8.17 µM in experiment [8], 3.07 µM in [9] and 3.72 µM in experiment [10].
For the compound `CC(C)(NC1=NCCO1)c1ccccc1`, the TGI in experiment [1], in experiment [2], in experiment [3], in [4], in [5] and in experiment [6] was greater than 100 µM throughout. Besides, the TGI in experiment [7], in [8], in experiment [9] and in experiment [10] was greater than 100 µM in each case.
Regarding `C#CCOC(=O)C(N)CCCN=C(N)N` (stereo unspecified), the TGI in experiment [1], in [2], in experiment [3], in experiment [4], in experiment [5] and in experiment [6] was greater than 100 µM throughout. Besides, the TGI in [7], in [8], in experiment [9] and in experiment [10] was greater than 100 µM throughout.
Consider `CC(C)C(C/C=C1\CC(CO)(COC(=O)CC(C(C)C)C(C)C)OC1=O)C(C)C` (stereo unspecified), for which the TGI in experiment [1] is 22 µM; in [2], 27.8 µM; in experiment [3] it was 15.8 µM; in experiment [4] it was 28.1 µM; in experiment [5], 18 µM; in experiment [6], 27.6 µM. Further, the TGI in experiment [7] came out at 31.8 µM; in experiment [8], 28.4 µM; in [9], 21.6 µM; in [10] it was 21.8 µM.
Turning to `COc1ccc(/C=C2\CN(C)Cc3c2[nH]c(=O)c(C#N)c3-c2ccc(OC)cc2)cc1`, the TGI in experiment [1], in [2], in experiment [3], in experiment [4], in [5] and in experiment [6] was greater than 100 µM each time. The TGI in [7] is greater than 100 µM; in experiment [8], 63.3 µM; in [9], greater than 100 µM; in [10] it was greater than 100 µM.
